Assay results as given in patent US11708348B2, “Protease inhibitors for treatment of coronavirus infections” (The Scripps Research Institute, priority 2021, dated 2023).
Where two headings read alike, the source gives them in different places.

System: SARS-CoV-2 strain USA-WA1/2020
Assay: microbe, parasite or virus in culture
Format: cell-based
Conditions: Severe acute respiratory syndrome coronavirus 2, HeLa-ACE2, 24 h, HeLa-ACE2 cells, SARS-CoV-2 infection, 24 h, read-out: EC50, uM (Hela)

SMILES: CC(C)C[C@H](NC(=O)CNc1ccccc1)C(=O)N[C@@H](C[C@@H]1CCNC1=O)C(=O)COc1c(F)c(F)cc(F)c1F [Compound 40, (S)-4-methyl-N-((S)-3-oxo-1-((S)-2-oxopyrrolidin-3-yl)-4-(2,3,5,6-tetrafluorophenoxy)butan-2-yl)-2-(2-(phenylamino)-acetamido)pentanamide]
- EC50 (class symbols): < 0.05 µM

SMILES: CC(C)C[C@@H](O)C(=O)N1CCC2(CC2)C[C@H]1C(=O)N[C@@H](C[C@@H]1CCNC1=O)C(=O)COC(F)(F)F [Compound 640, (S)-6-((R)-2-hydroxy-4-methylpentanoyl)-N-((S)-3-oxo-1-((S)-2-oxopyrrolidin-3-yl)-4-(trifluoromethoxy)butan-2-yl)-6-azaspiro[2.5]octane-5-carboxamide]
- EC50: 0.05 to 0.2 µM

SMILES: Cn1ccc(NC(=O)C(=O)N2C[C@@H]3CCC[C@@H]3[C@H]2C(=O)N[C@@H](C[C@@H]2CCNC2=O)C(=O)COC(F)(F)F)n1 [Compound 534, (1S,3aR,6aS)-2-(2-((l-methyl-1H-pyrazol-3-yl)amino)-2-oxoacetyl)-N-((S)-3-oxo-1-((S)-2-oxopyrrolidin-3-yl)-4-(trifluoromethoxy)butan-2-yl)octahydrocyclo-penta[c]pyrrole-1-carboxamide]
- EC50: 0.05 to 0.2 µM

SMILES: CC(C)C[C@H](NC(=O)C(=O)Nc1ccccc1F)c1cn([C@@H](C[C@@H]2CCNC2=O)C(=O)COc2c(F)c(F)cc(F)c2F)nn1 [Compound 197, N1-(2-fluorophenyl)-N2-((S)-3-methyl-1-(1-((S)-3-oxo-1-((S)-2-oxopyrrolidin-3-yl)-4-(2,3,5,6-tetrafluorophenoxy)butan-2-yl)-1H-1,2,3-triazol-4-yl)butyl)oxalamide]
- EC50 (class symbols): 0.5 to 1 µM

SMILES: Cc1ccccc1NC(=O)C(=O)N[C@@H](Cc1ccccn1)C(=O)N[C@@H](C[C@@H]1CCNC1=O)C(=O)COc1c(F)c(F)cc(F)c1F [Compound 148, N1-((S)-1-oxo-1-(((S)-3-oxo-1-((S)-2-oxopyrrolidin-3-yl)-4-(2,3,5,6-tetrafluorophenoxy)butan-2-yl)amino)-3-(pyridin-2-yl)propan-2-yl)-N2-(o-tolyl)oxalamide]
- EC50 (class symbols): 0.05 to 0.2 µM

SMILES: CC1(C)[C@@H]2[C@@H](C(=O)N[C@@H](C[C@@H]3CCCNC3=O)C(=O)COC(F)(F)F)N(C(=O)C(=O)NC3CCCCC3)C[C@@H]21 [Compound 470, (1R,2S,5S)-3-(2-(cyclohexylamino)-2-oxoacetyl)-6,6-dimethyl-N-((S)-3-oxo-1-((S)-2-oxopiperidin-3-yl)-4-(trifluoromethoxy)butan-2-yl)-3-azabicyclo[3.1.0]-hexane-2-carboxamide]
- EC50: < 0.05 µM

SMILES: COC(C(=O)N1C[C@@H]2CCC[C@@H]2[C@H]1C(=O)N[C@@H](C[C@@H]1CCNC1=O)C(=O)COC(F)(F)F)c1cncc(Cl)n1 (stereo partly drawn) [Compound 621, (1S,3aR,6aS)-2-(2-(6-chloropyrazin-2-yl)-2-methoxyacetyl)-N-((S)-3-oxo-1-((S)-2-oxopyrrolidin-3-yl)-4-(trifluoromethoxy)butan-2-yl)octahydrocyclopenta[c]pyrrole-1-carboxamide]
- EC50: 0.05 to 0.2 µM

SMILES: O=C(Nc1ccccc1)C(=O)N[C@@H](CC1CC1)C(=O)N[C@@H](C[C@@H]1CCNC1=O)C(=O)COc1c(F)c(F)cc(F)c1F [Compound 30, N1-((S)-3-cyclopropyl-1-oxo-1-(((S)-3-oxo-1-((S)-2-oxopyrrolidin-3-yl)-4-(2,3,5,6-tetrafluorophenoxy)butan-2-yl)amino)propan-2-yl)-N2-phenyloxalamide]
- EC50 (class symbols): < 0.05 µM

SMILES: CC(C)C[C@H](NC(=O)C(=O)Nc1ccccc1F)C(=O)N[C@@H](C[C@@H]1CCNC1=O)C(=O)COC(C(F)F)C(F)F [Compound 175, N1-(2-fluorophenyl)-N2-((S)-4-methyl-1-oxo-1-(((S)-3-oxo-1-((S)-2-oxopyrrolidin-3-yl)-4-((1,1,3,3-tetrafluoropropan-2-yl)oxy)butan-2-yl)amino)pentan-2-yl)oxalamide]
- EC50 (cells given as a bound): > 1 µM

SMILES: C[C@](O)(C(=O)N1CC2(CC2)C[C@H]1C(=O)N[C@@H](C[C@@H]1CCNC1=O)C(=O)COC(F)(F)F)C(F)(F)F [Compound 700, (S)-N-((S)-3-oxo-1-((S)-2-oxopyrrolidin-3-yl)-4-(trifluoromethoxy)butan-2-yl)-5-((S)-3,3,3-trifluoro-2-hydroxy-2-methylpropanoyl)-5-azaspiro[2.4]heptane-6-carboxamide]
- EC50: 0.05 to 0.2 µM

SMILES: O=C1NCC[C@H]1C[C@H](NC(=O)[C@@H]1[C@H]2CCC[C@H]2CN1C(=O)c1noc2cc(Cl)ccc12)C(=O)COC(F)(F)F [Compound 609, (1S,3aR,6aS)-2-(6-chlorobenzo[d]isoxazole-3-carbonyl)-N-((S)-3-oxo-1-((S)-2-oxopyrrolidin-3-yl)-4-(trifluoromethoxy)butan-2-yl)octahydrocyclopenta[c]pyrrole-1-carboxamide]
- EC50: < 0.05 µM

SMILES: CC1(NC(=O)C(=O)N2CC3(CCC3)C[C@H]2C(=O)N[C@@H](C[C@@H]2CCNC2=O)C(=O)COC(F)(F)F)CC1 [Compound 558, (S)-6-(2-((l-methylcyclopropyl)-amino)-2-oxoacetyl)-N-((S)-3-oxo-1-((S)-2-oxopyrrolidin-3-yl)-4-(trifluoromethoxy)butan-2-yl)-6-azaspiro[3.4]octane-7-carboxamide]
- EC50 (given as bound): > 1 µM

SMILES: Cc1ccccc1NC(=O)C(=O)N1C[C@@H]2CCC[C@@H]2[C@H]1C(=O)N[C@@H](C[C@@H]1CCNC1=O)C(=O)COC(F)(F)F [Compound 513, (1S,3aR,6aS)-N-((S)-3-oxo-1-((S)-2-oxopyrrolidin-3-yl)-4-(trifluoromethoxy)butan-2-yl)-2-(2-oxo-2-(o-tolylamino)acetyl)-octahydrocyclo-penta[c]pyrrole-1-carboxamide]
- EC50: < 0.05 µM

SMILES: O=C(NC1CC(F)(F)C1)C(=O)N[C@@H](Cc1ccccc1)C(=O)N[C@@H](C[C@@H]1CCNC1=O)C(=O)COC(F)(F)F [Compound 182, N1-(3,3-difluorocyclobutyl)-N2-((S)-1-oxo-1-(((S)-3-oxo-1-((S)-2-oxopyrrolidin-3-yl)-4-(trifluoromethoxy)butan-2-yl)amino)-3-phenylpropan-2-yl)oxalamide]
- EC50 (class symbols): < 0.05 µM

SMILES: O=C1NCC[C@H]1C[C@H](NC(=O)[C@@H]1[C@H]2CCC[C@H]2CN1C(=O)C12CC(C(F)F)(CO1)C2)C(=O)COC(F)(F)F [Compound 321, (1S,3aR,6aS)-2-(4-(difluoromethyl)-2-oxabicyclo[2.1.1]hexane-1-carbonyl)-N-((S)-3-oxo-1-((S)-2-oxopyrrolidin-3-yl)-4-(trifluoromethoxy)butan-2-yl)octahydrocyclopenta-[c]pyrrole-1-carboxamide]
- EC50 (class symbols): 0.05 to 0.2 µM

SMILES: CC[C@@H](O)C(=O)N1CC2(CC2)C[C@H]1C(=O)N[C@@H](C[C@@H]1CCNC1=O)C(=O)COC(F)(F)F [Compound 371, (S)-5-((R)-2-hydroxybutanoyl)-N-((S)-3-oxo-1-((S)-2-oxopyrrolidin-3-yl)-4-(trifluoromethoxy)butan-2-yl)-5-azaspiro[2.4]heptane-6-carboxamide]
- EC50 (class symbols): 0.05 to 0.2 µM

SMILES: CC(C)C[C@H](NC(=O)C(N)=O)C(=O)N[C@@H](C[C@@H]1CCNC1=O)C(=O)COC(F)(F)F [Compound 239, N1-((S)-4-methyl-1-oxo-1-(((S)-3-oxo-1-((S)-2-oxopyrrolidin-3-yl)-4-(trifluoromethoxy)butan-2-yl)amino)pentan-2-yl)oxalamide]
- EC50 (bound printed in cell): > 1 µM

SMILES: O=C(Nc1ccccc1F)C(=O)N[C@@H](Cc1cccc(F)c1)C(=O)N[C@@H](C[C@@H]1CCNC1=O)C(=O)COC(F)(F)F [Compound 243, N1-(2-fluorophenyl)-N2-((S)-3-(3-fluorophenyl)-1-oxo-1-(((S)-3-oxo-1-((S)-2-oxopyrrolidin-3-yl)-4-(trifluoromethoxy)butan-2-yl)amino)propan-2-yl)oxalamide]
- EC50 (class symbols): < 0.05 µM

SMILES: CC(C)C[C@@H](O)C(=O)N[C@@H](Cc1cccc(F)c1)C(=O)N[C@@H](C[C@@H]1CCNC1=O)C(=O)COC(F)(F)F [Compound 671, (R)-N-((S)-3-(3-fluorophenyl)-1-oxo-1-(((S)-3-oxo-1-((S)-2-oxopyrrolidin-3-yl)-4-(trifluoromethoxy)butan-2-yl)amino)propan-2-yl)-2-hydroxy-4-methylpentanamide]
- EC50: < 0.05 µM

SMILES: O=C1NCC[C@H]1C[C@H](NC(=O)[C@@H]1CC2(CC2)CN1C(=O)[C@H](O)Cc1ccccc1)C(=O)COC(F)(F)F [Compound 398, (S)-5-((R)-2-hydroxy-3-phenylpropanoyl)-N-((S)-3-oxo-1-((S)-2-oxopyrrolidin-3-yl)-4-(trifluoromethoxy)butan-2-yl)-5-azaspiro[2.4]heptane-6-carboxamide]
- EC50 (class symbols): 0.05 to 0.2 µM

SMILES: CC(C)C[C@H](NC(=O)OCC1CCCC1)C(=O)N[C@@H](C[C@@H]1CCNC1=O)C(=O)COc1c(F)c(F)cc(F)c1F [Compound 137, cyclopentylmethyl ((S)-4-methyl-1-oxo-1-(((S)-3-oxo-1-((S)-2-oxopyrrolidin-3-yl)-4-(2,3,5,6-tetrafluorophenoxy)butan-2-yl)amino)pentan-2-yl)carbamate]
- EC50 (class symbols): 0.5 to 1 µM

SMILES: C[C@@H]1C[C@H]2[C@H](C[C@@H](C(=O)N[C@@H](C[C@@H]3CCNC3=O)C(=O)COC(F)(F)F)N2C(=O)C(=O)NC(C)(C)C)O1 [Compound 551, (2R,3aS,5S,6aS)-4-(2-(tert-butylamino)-2-oxoacetyl)-2-methyl-N-((S)-3-oxo-1-((S)-2-oxopyrrolidin-3-yl)-4-(trifluoromethoxy)butan-2-yl)hexahydro-2H-furo[3,2-b]pyrrole-5-carboxamide]
- EC50 (given as bound): > 1 µM
